According to patent publication US8299097B2, “Methods for treating inflammatory disorders” (The Brigham and Women's Hospital, Inc., priority 2008, dated 2012):

Columns and labels:
naïve BALB/c mice = experiment: Intranasal cys-LT in naïve BALB/c mice, lung histology; format: in vivo, mouse; details: 2 nmol, three successive days
Method: Thus, it was sought to determine whether either cys-LT amplified pulmonary […], BALB/c mice received inhalation challenges on three consecutive days with low-dose OVA (0.1%) for 30 minutes. Twelve hours before each challenge, the mice received intranasal LTD4, LTE4, or a buffer control. A cohort of mice treated with 1% OVA were maintained as a positive control. The mice were then euthanized, their BAL fluid collected, and their lungs examined histologically for evidence of inflammation and goblet cell metaplasia, a dominant pathologic signature of Th2-polarized mucosal inflammation. […] The extent of the cellularity and goblet cell responses of the LTE4-treated animals approached the levels of these parameters in the mice treated with 1% OVA.
15 bronchovascular bundles of each mouse were evaluated.

human P2Y12 [1] = target: T1, human P2Y12 (Homo sapiens, UniProt Q9H244); experiment: Binding of cys-LTs to membranes of CHO cells stably expressing the human P2Y12 receptor; design: polyhistidine (HIS) tag (C); expressed in transfected cells
Excerpt: (§1) A P2Y12 receptor cDNA was amplified by reverse transcriptase polymerase chain reaction (RT-PCR) from RNA extracted from primary hMCs and cloned into a mammalian expression vector. Expression was confirmed by detection of a histidine (HIS) tag by flow cytometry. Another cohort of CHO cells were stably transfected with a P2Y12 receptor construct in reverse orientation as a negative control. […] The cys-LT-induced ERK activation blocked by pre-treatment of the cells with pertussis toxin (PTX), was attenuated by treatment with the P2Y12 receptor-selective antagonist 2-methylthioadenosine monophosphate (2-MesAMP) (FIG. 1C), and was resistant to MK571, an inhibitor that blocks CysLT1R and some P2Y receptors (Mamedova, L., et al. 2005. Biochem. Pharmacol. 71:115-125). […] These responses were resistant to PTX and 2-MesAMP, and susceptible to MK571 in the case of the CysLT1R transfectants.
A human P2Y12 receptor cDNA was amplified by 30 cycles of PCR from reverse-transcribed total RNA extracted from primary cord blood hMCs. The primer sequences were 5′-[…] (SEQ ID NO: 1) and 3′-[…] (SEQ ID NO: 2). The fragment was cloned into a TA vector (INVITROGEN™). After verifying the nucleotide sequence, the fragment was subcloned into the multiple cloning site of the expression vector pEF1/His B, encoding a C-terminal polyhistidine (HIS) tag. A plasmid expressing the P2Y12 receptor construct in the forward orientation were transfected into CHO cells using Fugene HD reagent according to manufacturer's protocol. A construct in the reverse sequence was transfected in parallel as a negative control. […]
[^3H] […] Protein concentration was determined using Biorad Protein Assay Kit. […] The residual membrane-associated [^3H] on the filter was determined in 2 ml scintillation fluid by beta counter (Perkin Elmer). For [^3H]ADP, specific binding was determined by subtracting the amount of [^3H] bound in the presence of 100 μM 2-MesADP from total binding.

human P2Y12 [2] = target: T1, human P2Y12; experiment: ERK activation (phosphorylation immunoblot) in P2Y12-expressing CHO cells; format: cell-based; design: polyhistidine (HIS) tag (C); expressed in transfected cells; details: for ERK activation by agonist: stimulated 15 min
Method: FIG. 1. Activation by recombinant human P2Y12 receptors in response to cys-LTs. The human P2Y12 receptor cDNA was cloned in forward and reverse orientation into the expression vector pEF1/His B and transfected into CHO cells using Fugene HD reagent. Stably-expressing clones were selected using G418 (1000 μg/ml), and expression of the construct was confirmed by cytofluorographic detection of the HIS tag. 1A. […] Results in second experiment were identical. 1B. SDS-PAGE immunoblots showing phosphorylation of ERK2 by CHO cells stably expressing human P2Y12 receptors in reverse (negative control) or forward orientations. […] The blots were stripped and re-probed with an antibody (Ab) recognizing total ERK1 and ERK2. […] 1C. Effect of the selective P2Y12 receptor antagonist 2-MesAMP (MeS) on ligand-induced ERK phosphorylation. P2Y12 receptor expressing CHO cells were stimulated with the same doses of agonists used in 1A, in the absence or presence of 2-MesAMP (100 μM). 1D. Comparison of P2Y12 receptor-mediated responses to cys-LTs with those of recombinant human CysLT1R and CysLT2R expressed in CHO cells, and the effect of the CysLT1R antagonist MK571 (1 μM). Data in 1B-1D are from individual experiments that were repeated at least 3 times with similar results.
FIG. 8. […] Cells were stably transfected with the human P2Y12 construct and stimulated for 15 minutes with the indicated ligand concentrations. […] Results in a second experiment were similar.
as §1
A human P2Y12 receptor cDNA was amplified by 30 cycles of PCR from reverse-transcribed total RNA extracted from primary cord blood hMCs. The primer sequences were 5′-[…] (SEQ ID NO: 1) and 3′-[…] (SEQ ID NO: 2). The fragment was cloned into a TA vector (INVITROGEN™). After verifying the nucleotide sequence, the fragment was subcloned into the multiple cloning site of the expression vector pEF1/His B, encoding a C-terminal polyhistidine (HIS) tag. […]

T1 sequence (Q9H244 whole entry): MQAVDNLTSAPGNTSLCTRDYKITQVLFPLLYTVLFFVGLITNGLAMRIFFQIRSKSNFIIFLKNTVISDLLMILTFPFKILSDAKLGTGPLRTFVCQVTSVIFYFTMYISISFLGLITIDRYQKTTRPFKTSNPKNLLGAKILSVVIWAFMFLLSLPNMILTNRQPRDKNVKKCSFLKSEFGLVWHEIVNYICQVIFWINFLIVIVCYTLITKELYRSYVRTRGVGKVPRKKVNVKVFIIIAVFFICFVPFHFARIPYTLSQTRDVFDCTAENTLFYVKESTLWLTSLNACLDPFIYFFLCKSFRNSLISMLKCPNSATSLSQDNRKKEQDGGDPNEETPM

binding to membranes of the transfectants (human P2Y12 [1])	ERK activation by agonist (human P2Y12 [2])	Kd (human P2Y12 [1]; membranes of P2Y12 CHO transfectants, read-out: affinity constant) [nM]	effect on cys-LT-induced ERK activation (human P2Y12 [2]; 2-MesAMP 100 μM, MK571 1 μM)	Compound	lung histology (cellular influx, goblet cell metaplasia) (naïve BALB/c mice)
also bound	robust, dose-dependent ERK activation			CCCCC/C=C\C\C=C/C=C/C=C/[C@@H](SC[C@H](N)C(=O)NCC(=O)O)[C@@H](O)CCCC(=O)O [LTD4]	no evidence of cellular influx or goblet cell metaplasia
	robust, dose-dependent ERK activation	10		CCCCC/C=C\C\C=C/C=C/C=C/[C@@H](SC[C@H](N)C(=O)O)[C@@H](O)CCCC(=O)O [LTE4]	no evidence of cellular influx or goblet cell metaplasia
			resistant	CN(C)C(=O)CCSC(SCCC(=O)O)c1cccc(/C=C/c2ccc3ccc(Cl)cc3n2)c1 (stereo not shown) [MK571]	
